# Experiments:
# [1] = test system: MCF7; assay: Antiproliferative activity against human MCF7 cells assessed as reduction in cell viability incubated for 72 hrs by MTT assay; format: functional, cell-based; conditions: MCF7, 72 h
# [2] = test system: MDA-MB-231; assay: Cytotoxicity against human MDA-MB-231 cells assessed as cell growth inhibition incubated for 48 hrs by SRB assay; format: functional, cell-based; conditions: MDA-MB-231, 48 h
# [3] = test system: HCT-116; assay: Antiproliferative activity against human HCT-116 cells assessed as reduction in cell viability incubated for 24 hrs by MTT assay; format: functional, cell-based; conditions: HCT-116, 24 h
# [4] = test system: KB; assay: Antitumor activity against human KB cells assessed as inhibition of cell growth measured upto 96 hrs in presence of thymidine by Cell titer blue assay; format: functional; set-up: scale not given: the % may be the effect or the level left
# [5] = molecular target: MAP kinase p38 (Homo sapiens) (UniProt O15264+Q15759+Q16539+P53778); assay: Inhibition of p38-MAPK (unknown origin) at 30 uM relative to control; format: protein assay
# [6] = Inhibition of ERK (unknown origin) at 100 uM by western blot assay relative to control; conditions: Homo sapiens
# [7] = species: Homo sapiens; assay: Inhibition of PI3K/AKT/NF-kappaB (unknown origin) at 30 uM relative to control
# [8] = test system: MDA-MB-231; assay: Inhibition of cell adhesion in human MDA-MB-231 cells assessed as reduction in cell adhesion at 10 uM relative to control; format: functional; set-up: scale not given: the % may be the effect or the level left
# [9] = test system: MDA-MB-231; assay: Inhibition of cell invasion of human MDA-MB-231 cells at 10 uM incubated for 24 hrs by crystal violet staining based analysis; format: functional; set-up: scale not given: the % may be the effect or the level left
# [10] = test system: MDA-MB-231; assay: Inhibition of cell migration in human MDA-MB-231 cells measured upto 48 hrs by transwell chamber assay relative to control; format: functional; set-up: scale not given: the % may be the effect or the level left
# [11] = Inhibition of Streptococcus sobrinus glycosyl transferase
# [12] = test system: NCI-H441; assay: Antiproliferative activity against human NCI-H441 cells assessed as reduction in cell viability incubated for 48 hrs by WST-8 assay; format: functional, cell-based; conditions: NCI-H441, 48 h
# [13] = test system: A549; assay: Antiproliferative activity against human A549 cells expressing wild type EGFR assessed as reduction in cell viability incubated for 48 hrs by MTT assay; format: functional, cell-based; conditions: A549, 48 h
# [14] = test system: U-266; assay: Anticancer activity against human U-266 cells assessed as inhibition of cell growth; format: functional, cell-based
# [15] = test system: K562; assay: Antiproliferative activity against human K562 cells assessed as reduction in cell viability incubated for 48 hrs by MTT assay; format: functional, cell-based; conditions: K562, 48 h
# [16] = test system: LNCaP; assay: Antiproliferative activity against human LNCaP assessed as reduction in cell viability incubated for 72 hrs by MTT assay; format: functional, cell-based
# [17] = test system: U-266; assay: Antiproliferative activity against human U-266 cells assessed as reduction in cell viability incubated for 96 hrs by ATPlite assay; format: functional, cell-based; conditions: U-266, 96 h
# [18] = test system: MDA-MB-231; assay: Cytotoxicity against human MDA-MB-231 cells assessed as reduction in cell viability measured after 24 hrs by MTT assay; conditions: MDA-MB-231, 24 h
# [19] = test system: U-937; assay: Antiproliferative activity against human U-937 cells assessed as cell growth inhibition measured after 72 hrs; format: functional, cell-based; conditions: U-937, 72 h
# [20] = test system: U-937; assay: Antiproliferative activity against human U-937 cells measured upto 72 hrs; format: functional, cell-based; conditions: U-937, 72 h
smiles,measurement,setting,value
COc1cc(OC)c2c(c1)OC(c1ccccc1)[C@H](OC(=O)c1ccc(OC(C)=O)c(CC=C(C)C)c1)C2 (stereo not given in full),IC50,[1],3.99 µM
O=C(Oc1cc(O)cc2ccccc12)c1cc(O)c(O)c(O)c1,IC50,[2],79 µM
O=C(O[C@@H]1Cc2c(O)cc(O)cc2O[C@@H]1c1cc(O)c(=O)c2c(O)c(O)cc([C@H]3Oc4cc(O)cc(O)c4C[C@H]3OC(=O)c3cc(O)c(O)c(O)c3)c2c1)c1cc(O)c(O)c(O)c1 [THEAFLAVIN DIGALLATE],IC50,[3],120 µM
O=C(O[C@@H]1Cc2c(O)cc(O)cc2O[C@@H]1c1cc(O)c(O)c(O)c1)c1cc(O)c(O)c(O)c1 [EPIGALOCATECHIN GALLATE],Activity,[4],70%
same,inhibition,[5],45%
same,inhibition,[6],25%
same,inhibition,[7],25%
same,Activity,[8],40%
same,Activity,[9],56%
same,Activity,[10],40%
same,IC50,[2],149 µM
same,IC50,[11],89.5 µM
O=C(O[C@@H]1Cc2c(OCc3cnnn3[C@H]3O[C@H](CO)[C@@H](O)[C@H](O)[C@H]3O)cc(O)cc2O[C@@H]1c1cc(O)c(O)c(O)c1)c1cc(O)c(O)c(O)c1,IC50,[12],100 µM
same,IC50,[13],30 µM
COc1ccc2c(c1)O[C@H](c1cc(OC)c(O)c(OC)c1)[C@H](OC(=O)c1cc(O)c(O)c(O)c1)C2,IC50,[14],0.64 µM
CCCCCCCCCCCCCCCC(=O)Oc1cc([C@H]2Oc3cc(O)cc(O)c3C[C@H]2OC(=O)c2cc(O)c(O)c(O)c2)cc(O)c1O,IC50,[15],17 µM
O=C(O[C@@H]1Cc2c(O)cc(O)cc2O[C@@H]1c1ccc(O)c(O)c1)c1cc(O)c(O)c(O)c1 [EPICATECHIN GALLATE],IC50,[16],36 µM
[N-]=[N+]=NC[C@@H]1O[C@H](c2c(O)cc(O)c3c2O[C@H](c2cc(O)c(O)c(O)c2)[C@H](OC(=O)c2cc(O)c(O)c(O)c2)C3)[C@H](O)[C@@H](O)[C@@H]1O,IC50,[17],15 µM
CCOc1cccc(C(=O)O[C@H]2COc3cc(OC)cc(OC)c3C2)c1,IC50,[1],8.19 µM
CC(=O)Oc1cc(OC(C)=O)c2c(c1)O[C@H](c1cc(OC(C)=O)c(OC(C)=O)c(OC(C)=O)c1)[C@H](OC(=O)c1cc(OC(C)=O)c(OC(C)OC(=O)OC(C)C)c(OC(C)=O)c1)C2 (stereo not given in full),CC50,[18],53.9 µM
O=c1c(O)cc([C@H]2Oc3cc(O)cc(O)c3C[C@H]2O)cc2cc(O)c(O)c(O)c12,IC50,[11],14 µM
O=C(Oc1cc(OC(=O)c2cc(O)c(O)c(O)c2)c2ccccc2c1)c1cc(O)c(O)c(O)c1,IC50,[2],77 µM
O=C(Nc1c(-c2ccc(O)c(O)c2)oc2ccccc2c1=O)c1ccc(O)c(O)c1,IC50,[19],37 µM
same,IC50,[20],0.38 µM
O=C(O[C@@H]1Cc2c(O)cc(O)cc2O[C@@H]1c1cc(O)c(=O)c2c(O)c(O)c(O)cc2c1)c1cc(O)c(O)c(O)c1,IC50,[11],11 µM

# From ChEMBL document CHEMBL5335789, “Tea-break with epigallocatechin gallate derivatives - Powerful polyphenols of great potential for medicine” (Eur J Med Chem, 2023)
